Reference: US10709769B2, “Use of endostatin peptides for the treatment of fibrosis” (University of Pittsburgh—Of the Commonwealth System of …, priority 2009, dated 2020)

Key:
[1] = tested on: human primary lung fibroblasts; experiment: FN and Col1α1 western blot in TGF-β-treated primary lung fibroblasts; format: cell-based; conditions: normal human lung fibroblasts; TGF-β 10 ng/ml 24 h, then 5 μg/ml rE or peptide 48 h; vs TGF-β alone
Protocol: (§1) Human primary lung and skin fibroblasts were cultured. The explanted lungs of normal organ donors, patients with SSc or IPF, and clinically involved skin of SSc patients, a morphea patient and healthy donors were used for primary fibroblast culture. Approximately 2-cm pieces of peripheral lung and skin were minced and fibroblasts were cultured in Dulbecco's modified Eagle's medium (DMEM; Mediatech, Herndon, Va.) supplemented with 10% FBS, penicillin, streptomycin, and anti-mycotic agent, as previously described (Feghali et al., Arthritis Rheum 1999; 42:1451-7). All the cells were used between passages 3-6.
Cellular lysates were obtained from cultured fibroblasts as previously described (Pilewski et al., Am J Pathol 2005; 166:399-407). Briefly, 2.0×10^5 primary fibroblasts were cultured in 35-mm wells in 0.5% FBS-containing medium supplemented with 10 ng/ml of human recombinant TGF-β or PBS as vehicle control for 24 h, following which 5 μg/ml of human rE, endostatin peptides (E1-E4), or DMSO (vehicle) was added for 48 h. In some experiments, endostatin peptides were used without TGF-β stimulation. Cellular lysates were analyzed by western blot. Signals were detected following incubation with horseradish peroxidase-conjugated secondary antibody and chemiluminescence (Perkin Elmer Life Sciences, Inc., Boston, Mass.). The intensity of individual bands with expected molecular sizes was semi-quantitatively analyzed using the image/J® software available at on the internet (/rsb.info.nih.gov/ij/index.html), and normalized to individual GAPDH intensity.
To evaluate whether endostatin modulates production of ECM components in fibroblasts, FN and Col1α1 expression was examined in normal human lung fibroblasts by western blot analysis. Cells were treated with 5 µg/ml rE for 48 h with or without pre-stimulation with human TGF-β for 24 h. […] To define the functional domain of endostatin that mediates its inhibitory effect, four different peptides were synthesized corresponding to different regions of endostatin (Table 1).

mouse skin = experiment: TGF-β-induced dermal fibrosis in vivo in mouse skin
Protocol: FIG. 9. E4 reverses TGF β-induced dermal fibrosis even if administered 3 days following TGF-β.
CB57BL6/J male mice were purchased from The Jackson Laboratory (Bar Harbor, Me.). Human rE (10 μg/ml) or Endostatin peptides (10 μg/ml) in combination with TGF-β (10 ng/ml), or TGF-β alone were injected intradermally on the back of mice in a total volume of 100 μl 1×PBS. Mice were injected in two different skin sites and sacrificed one week post-injection. Skin surrounding the injection site was harvested and fixed in 10% formalin prior to embedding in paraffin.
(§2) Six μm sections of paraffin-embedded human and mouse skin tissues were stained with hematoxylin and eosin (H&E). In some experiments, sections were stained with Masson trichrome which identifies collagens. Images were taken on a Nikon Eclipse 800 microscope. The thickness of the dermis was measured in 6 random fields of each section using the image/J® software. Data are shown in arbitrary units.
E4, a peptide representing the carboxy terminus of human endostatin, can attenuate fibrosis triggered by multiple fibrogenic factors. The anti-fibrotic effects of E4 can be detected whether administered concomitantly with or following the fibrogenic trigger. The efficacy of E4 was confirmed in […] pre-clinical models of fibrosis: a) bleomycin-induced dermal fibrosis in vivo in mouse skin, b) TGF-β induced dermal fibrosis in mouse skin, and c) bleomycin-induced pulmonary fibrosis. E4 peptide or a control peptide (E1; representing the amino terminal region of endostatin) were administered at the same time as TGF-β or bleomycin or 3-4 days following TGF-β or bleomycin. Mice were sacrificed one and two weeks after TGF-β-initiation of dermal fibrosis, and two and three weeks after bleomycin-induced pulmonary fibrosis. Two different modes of administration of the E4 peptide were also tested. It was confirmed that intraperitoneal and intratracheal administration was effective. The amount of E4 that was administered ws 10 μg/ml in a total volume of 100 μl for skin and IP injections and 50 μl for IT administration.

human skin explants = experiment: Ex vivo human skin fibrosis organ culture, dermal thickness; format: cell-based
Protocol: Human abdominal skin was obtained from corrective plastic surgery. As previously described (Yasuoka et al., The Open Rheumatol J 2008; 2:17-22), subcutaneous fat tissue was removed uniformly and skin tissue was cut into 1.5 cm×1.5 cm sections. The following were injected intradermally in a total volume of 100 μl 1×PBS: rE alone (1-10 μg/ml), endostatin peptides alone (10 μg/ml), rE or endostatin peptides (1-20 μg/ml) in combination with TGF-β (10 ng/ml), and TGF-β alone (10 ng/ml). In some experiments, human skin was first injected with TGF-β for 48 h followed by recombinant endostain (rE) administration in the same injection site as TGF-β. Explants containing complete epidermal and dermal layers were cultured in an air liquid interface with the epidermal and keratin layers side up and exposed to air. The culture medium was replaced every other day. After 1 or 2 weeks, skin tissue corresponding to an area with 8-mm diameter centered around the injection site was harvested using disposable 8-mm Acu Punch® (Acuderm inc., Lauderdale, Fla.). Skin tissue was fixed in 10% formalin prior to embedding in paraffin.
as §2

[2] = tested on: human primary skin fibroblasts; experiment: TGF-β-induced ECM production in primary skin (dermal) fibroblasts, western blot; format: cell-based; conditions: dermal fibroblasts from healthy controls, SSc or morphea patients
Protocol: as §1
Cellular lysates were obtained from cultured fibroblasts as previously described (Pilewski et al., Am J Pathol 2005; 166:399-407). […] Cellular lysates were analyzed by western blot. Signals were detected following incubation with horseradish peroxidase-conjugated secondary antibody and chemiluminescence (Perkin Elmer Life Sciences, Inc., Boston, Mass.). The intensity of individual bands with expected molecular sizes was semi-quantitatively analyzed using the image/J® software available at on the internet (/rsb.info.nih.gov/ij/index.html), and normalized to individual GAPDH intensity. […]

MMP-2 = MMP-2 gelatin zymography in primary human lung fibroblasts; format: cell-based
Protocol: FIG. 14A-14B. A. E4 reduces fibrosis in vitro by inducing MMP-2 activity in primary human lung fibroblasts, thus resulting in increased degradation of collagen and other matrix proteins. Digital image of a gelatin zymography gel showing increased MMP-2 activity when primary human lung fibroblasts are treated with E-4 following TGFβ (lane 4). Lane 1: Vehicle (DMSO); Lane 2: E-4; Lane 3: TGF 3; Lane 4: TGF 3 followed by E4. B. Digital image showing that both total and active MMP-2 levels are increased in cells treated with TGFbeta and E-4.

## H-^133SYCETWRTEAPSATGQASSLLGGRLLGQSAASCHHAYIVLCIENSFMT^180-CONH2 (H-SYCETWRTEAPSATGQASSLLGGRLLGQSAASCHHAYIVLCIENSFMT-NH2; cysteine pairing not given here; UniProt P39060 1704-1751, looked up, fragment) [E4, amino acids 133-180 of human endostatin; differs from E3 by the presence of a carboxy-terminal amide]
[1]
  FN and Col1α1 levels/production: significantly suppressed
Mouse skin; TGFβ day 1, peptide IP at day 3, harvested day 7
  TGFbeta induced dermal fibrosis, delayed treatment: significant decrease
Mouse skin; mice, intradermal, 10 μg/ml with TGF-β 10 ng/ml, one week post-injection
  TGF-β-induced dermal fibrosis (dermal thickness): prevented
Human skin explants; 1, 5, 10, 20 μg/ml with TGF-β 10 ng/ml, effect at 5-20 μg/ml
  TGF-β-induced skin fibrosis (dermal thickness), dose response: clearly ameliorated
Human skin explants; injected alone without TGF-β, rE 1, 5, 10 μg/ml, peptides 10 μg/ml
  dermal thickness, baseline effect: tendency towards reduction
Human skin explants; peptides 10 μg/ml with TGF-β 10 ng/ml, vs TGF-β alone
  development of fibrosis as measured by dermal thickness: significantly abolished
[2]
  TGF-β-induced ECM production (FN, Col1α1): reduced
MMP-2; E-4 following TGFβ, gelatin zymography
  MMP-2 activity: increased
MMP-2; cells treated with TGFbeta and E-4
  total and active MMP-2 levels: increased
